Where a SMILES comes first, the peptide text is derived from it. Bridges are numbered along the chain shown (N, C = ends). [ ]: non-standard residue; d: D form. Abu = CC[C@H](N)C(=O)O
Experiments:
Type in all cases: in vivo
[1] = tested on: glucagon; experiment: Arginine-stimulated hormone release in Nembutal-anesthetized rats, glucagon by radioimmunoassay
Procedure: (§1) Albino male rate are administered Nembutal intraperitoneally at a dose of 50 milligrams per kilogram. Fifteen minutes later a subcutaneous injection of the test compound or physiological saline (control) is administered. Ten minutes later 0.5 milliliters of arginine (300 milligrams per milliliter, pH 7.2) is injected into the heart. Five minutes after receipt of the arginine the rats are decapitated and blood is collected into trasylol-EDTA. An appropriate aliquot is assayed for growth hormone (GH), insulin, and glucagon by radioimmunoassay.

[2] = tested on: growth hormone (GH); experiment: Arginine-stimulated hormone release in Nembutal-anesthetized rats, growth hormone by radioimmunoassay; conditions: albino male rats, 1,000 μg/kg subcutaneous, blood 15 min after dose (5 min after arginine); control 454 ± 106
Procedure: as §1

[3] = tested on: insulin; experiment: Arginine-stimulated hormone release in Nembutal-anesthetized rats, insulin by radioimmunoassay; conditions: albino male rats, 1,000 μg/kg subcutaneous, blood 15 min after dose (5 min after arginine); control 269 ± 37
Procedure: as §1

CC[C@@H]1NC(=O)[C@H](CCCCN)NC(=O)[C@@H](Cc2c[nH]c3ccccc23)NC(=O)[C@H](Cc2ccccc2)NC(=O)[C@H](Cc2ccccc2)NC(=O)[C@H](Cc2c[nH]cn2)NC(=O)[C@@H](N)CSSC[C@@H](C(=O)O)NC(=O)[C@H](Cc2ccccc2)NC1=O [Example 2, L-Cysteinyl-L-histidyl-L-phenylalanyl-L-phenylalanyl-D-tryptophyl-L-lysyl-L-α-aminobutyryl-L-phenylalanyl-L-cysteine cyclic (1-9) disulfide] (H-CHFF[dW]K[Abu]FC-OH; disulfide 1-9)
GLUN ([1]; albino male rats, 1,000 μg/kg subcutaneous, blood 15 min after dose (5 min after arginine), control 60 ± 10, p<0.05): 31 ± 5 pg/mL
selective inhibition of glucagon release versus growth hormone and insulin levels ([1]; without materially altering blood serum growth hormone and insulin levels): selectively inhibit glucagon release
GH [2]: 413 ± 98 ng/mL
INS [3]: 262 ± 39 μU/ml
